pIC50: −log10 of the molar value.
Assays:
[1] = tested on: binding of human sperm to human zona; test: Human sperm-zona binding assay (Example 5); type: cell-based
Procedure: The human sperm-zona recognition and binding assay appears to predict the in vitro and in vivo fertilization outcome. […] Due to the variable number of sperm binding to human eggs, the sperm-zona binding ratio was used to assess sperm-zona binding capacity.
Following coincubation, the number of tightly bound green (SYBR 14) and blue (SYTO 17) sperm were assessed by laser scanning confocal microscopy. Frozen human eggs (n=46) were thawed and rinsed three times in BWW-0.3% BSA, and in BWW-3.5% BSA, before addition of sperm suspension. […] The first aliquot was incubated with 2.5 μM SYBR 14 (Molecular Probes) and the second aliquot was incubated with 5 μM SYTO 17. Following 30 minutes of incubation, sperm motility was assessed by CASA. Motile sperm with intensely stained green or blue nuclei were washed twice in BWW and one million motile sperm labeled with SYBR 14 (green) and SYTO 17 (blue) were added to dish containing human zona (n=2) under mineral oil and coincubated for 4 hours. Following extensive washing of eggs to dislodge any loosely adherent sperm, the eggs were mounted on glass slides and examined under a BioRad MRC-1024 Laser Scanning Confocal Microscope as described above. Using fluorescence imaging, the fluorescence emission of SYBR-14 and SYTO-17 localized on the sperm head was simultaneously recorded using 598/40 nm, and 680 DF32 emission/filter respectively. Confocal images of Z-sections were obtained using a Nikon […] (NA 1.4) objective and Kalman collection filter. Digitized images were processed with the Adobe Photoshop software and final images were printed using a Fujix Pictography 3000 color printer. The number of tightly bound green and blue-colored sperm nuclei adherent to each human egg were counted from the Z-sections of fluorescence images of each egg on all focal planes and expressed as a binding ratio.

HIV-1 strain HTLVIIIB = test: In vitro anti-HIV-1 activity, HTLVIIIB p24 assay in PBMC (Example 9); type: cell-based; conditions: Human immunodeficiency virus 1; HIV-1 replication in PBMC, p24 antigen production
Procedure: The HIV-1 strain, HTLVIIIB, which was propagated in CCRF-CEM cells, was used for in vitro assays of the anti-HIV-1 activity of selected novel WHI-07 analogues. Cell-free supernatants of HTLVIIIB-infected CCRF-CEM cells were harvested, dispensed into 1 ml aliquots, and frozen at −70° C. Titration of stock virus was performed by examining its cytopathic effects in MT-2 cells. [see, Uckun FM, et al., Antimicrob Agents Chemther 1998; 42:383-388]. Normal human peripheral blood mononuclear cells (PBMC) from HIV-negative donors were cultured for 72 h in RPMI 1640 supplemented with 20%(v/v) heat-inactivated fetal bovine serum (FBS), 3% interleukin-2, 2 mM L-glutamine, 25 mM HEPES, 2 g/L NaHCO3, 50 μg/ml gentamicin, and 4 μg/ml phytohemagglutinin prior to exposure to HIV-1 at a multiplicity of infection of 0.1 during a 1 h adsorption period at 37° C. in a humidified 5% CO2 atmosphere. […] Percent viral inhibition was calculated by comparing the p24 values from the drug-treated infected cells with p24 values from untreated infected cells (i.e., virus controls). […] A microculture tetrazolium assay, using 2,3-bis(2-methoxy-4-nitro-5-sulfophenyl)-5-[(phenylamino)-carbonyl]-2H-tetrazolium hydroxide, was performed to quantitate cellular proliferation.

female Swiss (CD-1) mice = test: Fertility of female mice after artificial insemination with intravaginal application (Example 7); type: in vivo, mouse
Description: Because fertilization in vivo is dependent on successful sperm transport through the female genital tract, we next determined whether exposure of sperm to the WHI-07 in vivo affected the subsequent fertility outcome. Hormonally primed adult female Swiss (CD-1) mice were artificially inseminated with motile epididymal sperm via the cervix with and without prior intravaginal application of WHI-07 in a cream base. Females were examined 8 days later for the presence or absence of embryos in uteri.
More particularly, adult (5-6 months old) female CD-1 mice were superovulated by an intraperitoneal injection (i. p.) of 5 IU of pregnant mare's serum gonadotropin followed by an i.p. injection of 5 IU of human chorionic gonadotropin 46-48 hours later. Mice were randomly assigned to one of the two treatment groups (27 or 24/group); vehicle controls [cream base (Taro Pharmaceuticals, Hawthorne, N.J.) with 1% DMSO], or test group (cream base with 1% WHI-07 in 1% DMSO) and given intravaginally (50 μl) prior to artificial insemination. Caudae epididymal sperm were obtained from proven breeder adult CD-1 male (5-6 months old) [B. Hogan, R. Beddington, F. Costantini, E. Lacy, Eds., Manipulating the Mouse Embryo (Cold Spring Harbor Laboratory Press, Plainview, N.Y., 1994] and suspended in a modified Krebs Ringer-bicarbonate medium (M2; Gibco-BRL) supplemented with pyruvate, lactate, and glucose. Sperm were capacitated in M2 medium-5% BSA for 1 hour prior to use. For each experiment cauda epididymal sperm pooled from 25 male mice and adjusted to 1-2×10^6 motile sperm/50 μl were used for insemination. A 50 μl volume/mouse was ejected through a 1 ml syringe with a blunted 18 gauge needle. Preparations were analyzed for sperm concentration, motility, and sperm motion parameters by CASA using software designed for oval sperm head morphology (Hamilton Thorne). On day 8, individual females representing the control and test group were killed and their uteri were examined for the presence or absence of embryos. A total of three independent fertility experiments were performed.

[2] = experiment 1, 27 mice, 1% WHI-07 in cream base intravaginally, day 8
[3] = experiment 2, 27 mice, 1% WHI-07 in cream base intravaginally, day 8
[4] = experiment 3, 24 mice, 1% WHI-07 in cream base intravaginally, day 8
[5] = total of three experiments, 78 mice, p < 0.001 vs control

Molecule	mean sperm-zona binding ratio ([1]; sperm pretreated with 25 μM)	mean sperm-zona binding ratio ([1]; sperm pretreated with 50 μM)	mean sperm-zona binding ratio ([1]; sperm pretreated with 100 μM)	pIC50 (HIV-1 strain HTLVIIIB)	No. of WHI-07-treated mice fertile (female Swiss (CD-1) mice; [2])	WHI-07-treated mice fertile (%) (female Swiss (CD-1) mice; [2])	No. of WHI-07-treated mice fertile (female Swiss (CD-1) mice; [3])	WHI-07-treated mice fertile (%) (female Swiss (CD-1) mice; [3])	No. of WHI-07-treated mice fertile (female Swiss (CD-1) mice; [4])	WHI-07-treated mice fertile (%) (female Swiss (CD-1) mice; [4])	No. of WHI-07-treated mice fertile (female Swiss (CD-1) mice; [5])	WHI-07-treated mice fertile (%) (female Swiss (CD-1) mice; [5])
5-bromo-6-methoxy-5,6-dihydro-3 ′-azidothymidine-5 ′-(p-methoxyphenyl) methoxyalaninyl phosphate [WHI-05]	0.18	0.07	0.10									
COC(=O)C(C)NP(=O)(OCC1OC(N2C(=O)NC(=O)C(C)(Br)C2OC)CC1N=[N+]=[N-])Oc1ccc(Br)cc1 (stereo not drawn) [WHI-07, 5-Bromo-6-methoxy-5,6-dihydro-3′-azidothymidine-5′-(p-Bromophenyl Methoxyalaninyl Phosphate)]	0.088	0.039	0.009	8.30	2	7.4	1	3.7	3	12.5	6	7.6

Reference: patent publication US6482805B2 (Parker Hughes Institute, priority 1998, dated 2002)
